Test results from publication PMC7358528, “Tuning Scorpion Toxin Selectivity: Switching From KV1.1 to KV1.3” (Frontiers in Pharmacology, 2020).
Where two headings read alike, the source gives them in different places. Where a SMILES comes first, the peptide text is derived from it. Bridges are numbered along the chain shown (N, C = ends).

Columns and labels:
KV1.3 [1] = target: T1, KV1.3 (Homo sapiens, UniProt P22001); assay: Two-electrode voltage clamp on KV1.3 expressed in Xenopus oocytes; assay type: cell-based; design: expressed in transfected cells; host or cells: Xenopus laevis oocytes injected with cRNA; conditions: for inhibition at 0.01 µM: 10 nM, KV1.3, Xenopus oocytes, read-out: inhibition of potassium current
Description: (§1) Ion Channel Expression in Xenopus Oocytes
(§2) The major pipeline of ion channel expression in oocytes was described previously ([Peigneur et al., 2011]). Briefly, for the expression of KV genes (rat (r)KV1.1, rKV1.2, human (h)KV1.3, rKV1.4, rKV1.5, and rKV1.6) in Xenopus laevis oocytes, linearized plasmids containing the respective gene sequences were transcribed using the T7 mMESSAGE-mMACHINE transcription kit (Ambion). 50 nl of cRNA solution (1 ng/nl) were injected into oocytes using a micro-injector (Drummond Scientific). The oocytes were incubated in ND96 solution: 96 mM NaCl, 2 mM KCl, 1.8 mM CaCl2, 2 mM MgCl2 and 5 mM HEPES, pH 7.4, supplemented with 50 mg/l gentamycin sulfate.
(§3) Electrophysiological Recordings
(§4) Two-electrode voltage-clamp recordings were performed at room temperature (18–22°C) using a Geneclamp 500 amplifier (Molecular Devices) controlled by a pClamp data acquisition system (Axon Instruments) as described ([Peigneur et al., 2011]). Bath solution composition was ND96. KV currents were evoked by 250-ms depolarization to 0 mV from a holding potential of −90 mV, followed by 250-ms pulses to −50 mV. For current–voltage relationship studies, currents were evoked by 10-mV depolarization steps. Concentration–response curves were constructed, in which the percentage of current inhibition was plotted as a function of toxin concentration. Data were fitted with the Hill equation: y = 100/[1 + (IC50/[toxin])^h], where y is the amplitude of the toxin-induced effect, [toxin] is toxin concentration, and h is the Hill coefficient. Comparison of two sample means was performed using a paired Student’s t-test (p-value of 0.05 was used as a threshold of significance). All data were obtained in at least three independent experiments (n ≥ 3) and are presented as mean ± standard error of the mean.

KV1.1 = target: T2, KV1.1 (Rattus norvegicus, UniProt P10499); assay: Two-electrode voltage clamp on KV1.1 expressed in Xenopus oocytes; assay type: cell-based; conditions: for IC50: rKV1.1, Xenopus oocytes, two-electrode voltage clamp, ND96 pH 7.4, 18–22°C, 0 mV from −90 mV
T2 construct: expressed in transfected cells; host or cells: Xenopus laevis oocytes injected with cRNA
Description: as §1, §2, §3, §4

rat KV1.6 (rat) [2] = target: rat KV1.6 (rat) (UniProt P17659)
rat KV1.2 (rat) [3] = target: rat KV1.2 (rat) (UniProt P63142)
rat KV1.1 (rat) [4] = target: rat KV1.1 (rat) (UniProt P10499)
KV1.3 [5] = target: T1, KV1.3
rat KV1.1 (rat) [6] = target: rat KV1.1 (rat) (UniProt P10499); remark: listed apart in the source
rat KV1.1 (rat) [7] = target: rat KV1.1 (rat) (UniProt P10499); remark: listed apart in the source
rat KV1.6 (rat) [8] = target: rat KV1.6 (rat) (UniProt P17659); remark: listed apart in the source
rat KV1.2 (rat) [9] = target: rat KV1.2 (rat) (UniProt P63142); remark: listed apart in the source
KV1.3 [10] = target: T1, KV1.3; remark: listed apart in the source
KV1.6 = target: T3, KV1.6 (Rattus norvegicus, UniProt P17659); assay: Two-electrode voltage clamp on KV1.6 expressed in Xenopus oocytes; assay type: cell-based; conditions: mean ± SEM, n ≥ 3
T3 construct: expressed in transfected cells; host or cells: Xenopus laevis oocytes injected with cRNA
Description: as §1, §2, §3
(§5) Two-electrode voltage-clamp recordings were performed at room temperature (18–22°C) using a Geneclamp 500 amplifier (Molecular Devices) controlled by a pClamp data acquisition system (Axon Instruments) as described ([Peigneur et al., 2011]). Bath solution composition was ND96. KV currents were evoked by 250-ms depolarization to 0 mV from a holding potential of −90 mV, followed by 250-ms pulses to −50 mV. For current–voltage relationship studies, currents were evoked by 10-mV depolarization steps. Concentration–response curves were constructed, in which the percentage of current inhibition was plotted as a function of toxin concentration. […]

KV1.2 = target: T4, KV1.2 (Rattus norvegicus, UniProt P63142); assay: Two-electrode voltage clamp on KV1.2 expressed in Xenopus oocytes; assay type: cell-based
T4 construct: expressed in transfected cells; host or cells: Xenopus laevis oocytes injected with cRNA
Description: as §1, §2, §3, §4

KV1.4 = target: T5, KV1.4 (Rattus norvegicus, UniProt P15385); assay: Two-electrode voltage clamp on KV1.4 expressed in Xenopus oocytes; assay type: cell-based; conditions: rKV1.4, Xenopus oocytes, up to 1 µM
T5 construct: expressed in transfected cells; host or cells: Xenopus laevis oocytes injected with cRNA
Description: as §1, §2, §3, §5

KV1.5 = target: T6, KV1.5 (Rattus norvegicus, UniProt P19024); assay: Two-electrode voltage clamp on KV1.5 expressed in Xenopus oocytes; assay type: cell-based; conditions: rKV1.5, Xenopus oocytes, up to 1 µM
T6 construct: expressed in transfected cells; host or cells: Xenopus laevis oocytes injected with cRNA
Description: as §1, §2, §3, §5

Chain of rat KV1.1 (rat) (P10499 whole entry): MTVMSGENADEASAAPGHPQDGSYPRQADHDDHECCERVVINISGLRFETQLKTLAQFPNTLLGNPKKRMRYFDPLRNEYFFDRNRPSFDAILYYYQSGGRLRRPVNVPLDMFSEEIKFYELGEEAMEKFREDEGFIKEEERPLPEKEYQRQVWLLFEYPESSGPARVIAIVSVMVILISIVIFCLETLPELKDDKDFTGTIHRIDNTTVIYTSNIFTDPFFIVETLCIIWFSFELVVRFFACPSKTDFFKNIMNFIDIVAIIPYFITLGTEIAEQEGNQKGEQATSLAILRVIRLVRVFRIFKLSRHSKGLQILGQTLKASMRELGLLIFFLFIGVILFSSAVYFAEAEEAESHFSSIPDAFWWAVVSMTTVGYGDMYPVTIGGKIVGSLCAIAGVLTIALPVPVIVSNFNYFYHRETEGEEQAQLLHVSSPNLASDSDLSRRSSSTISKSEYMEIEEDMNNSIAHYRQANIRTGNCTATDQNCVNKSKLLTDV
T2 sequence (P10499 whole entry): as above
T4 sequence (P63142 whole entry): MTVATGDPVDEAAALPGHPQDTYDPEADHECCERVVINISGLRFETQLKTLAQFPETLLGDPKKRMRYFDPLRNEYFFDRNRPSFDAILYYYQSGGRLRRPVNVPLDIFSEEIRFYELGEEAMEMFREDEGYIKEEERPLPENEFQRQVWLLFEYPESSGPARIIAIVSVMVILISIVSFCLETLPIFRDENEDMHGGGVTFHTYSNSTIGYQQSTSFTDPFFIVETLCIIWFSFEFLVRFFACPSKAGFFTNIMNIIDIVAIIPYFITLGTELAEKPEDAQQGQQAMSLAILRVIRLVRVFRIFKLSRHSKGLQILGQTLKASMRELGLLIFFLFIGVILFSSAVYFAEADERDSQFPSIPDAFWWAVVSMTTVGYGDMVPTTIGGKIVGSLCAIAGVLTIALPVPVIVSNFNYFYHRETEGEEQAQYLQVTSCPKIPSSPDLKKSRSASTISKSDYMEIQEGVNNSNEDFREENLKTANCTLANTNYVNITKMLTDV
T1 sequence (P22001 whole entry): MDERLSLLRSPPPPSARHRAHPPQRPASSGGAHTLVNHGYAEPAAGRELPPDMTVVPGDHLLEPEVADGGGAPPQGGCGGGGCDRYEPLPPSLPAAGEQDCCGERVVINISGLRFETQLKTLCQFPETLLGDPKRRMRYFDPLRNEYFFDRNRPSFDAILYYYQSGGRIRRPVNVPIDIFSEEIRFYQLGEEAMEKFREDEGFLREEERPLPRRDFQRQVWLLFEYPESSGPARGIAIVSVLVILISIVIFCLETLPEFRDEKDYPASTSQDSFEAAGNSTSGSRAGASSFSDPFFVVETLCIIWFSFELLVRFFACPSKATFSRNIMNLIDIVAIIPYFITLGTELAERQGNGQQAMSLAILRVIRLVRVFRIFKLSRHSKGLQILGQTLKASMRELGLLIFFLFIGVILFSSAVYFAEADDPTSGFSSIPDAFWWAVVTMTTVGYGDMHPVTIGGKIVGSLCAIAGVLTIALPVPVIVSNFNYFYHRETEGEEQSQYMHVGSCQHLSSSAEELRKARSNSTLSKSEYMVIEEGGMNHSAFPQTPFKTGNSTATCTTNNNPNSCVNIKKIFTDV
Chain of rat KV1.2 (rat) (P63142 whole entry): as the sequence (P63142 whole entry) above
Chain of rat KV1.6 (rat) (P17659 whole entry): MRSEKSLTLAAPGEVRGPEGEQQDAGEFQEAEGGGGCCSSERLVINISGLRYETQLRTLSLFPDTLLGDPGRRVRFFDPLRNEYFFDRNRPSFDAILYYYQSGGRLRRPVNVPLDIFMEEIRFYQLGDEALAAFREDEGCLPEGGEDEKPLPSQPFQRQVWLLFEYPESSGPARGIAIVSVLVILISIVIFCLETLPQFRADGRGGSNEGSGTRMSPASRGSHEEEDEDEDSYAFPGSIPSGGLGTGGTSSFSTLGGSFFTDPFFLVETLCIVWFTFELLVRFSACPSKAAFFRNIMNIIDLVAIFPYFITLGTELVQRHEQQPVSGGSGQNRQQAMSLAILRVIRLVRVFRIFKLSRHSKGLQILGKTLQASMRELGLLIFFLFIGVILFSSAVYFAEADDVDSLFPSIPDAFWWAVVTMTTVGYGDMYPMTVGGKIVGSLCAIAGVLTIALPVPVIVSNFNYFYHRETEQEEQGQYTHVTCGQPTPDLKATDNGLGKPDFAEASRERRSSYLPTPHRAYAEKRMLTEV
T3 sequence (P17659 whole entry): as above
T6 sequence (P19024 whole entry): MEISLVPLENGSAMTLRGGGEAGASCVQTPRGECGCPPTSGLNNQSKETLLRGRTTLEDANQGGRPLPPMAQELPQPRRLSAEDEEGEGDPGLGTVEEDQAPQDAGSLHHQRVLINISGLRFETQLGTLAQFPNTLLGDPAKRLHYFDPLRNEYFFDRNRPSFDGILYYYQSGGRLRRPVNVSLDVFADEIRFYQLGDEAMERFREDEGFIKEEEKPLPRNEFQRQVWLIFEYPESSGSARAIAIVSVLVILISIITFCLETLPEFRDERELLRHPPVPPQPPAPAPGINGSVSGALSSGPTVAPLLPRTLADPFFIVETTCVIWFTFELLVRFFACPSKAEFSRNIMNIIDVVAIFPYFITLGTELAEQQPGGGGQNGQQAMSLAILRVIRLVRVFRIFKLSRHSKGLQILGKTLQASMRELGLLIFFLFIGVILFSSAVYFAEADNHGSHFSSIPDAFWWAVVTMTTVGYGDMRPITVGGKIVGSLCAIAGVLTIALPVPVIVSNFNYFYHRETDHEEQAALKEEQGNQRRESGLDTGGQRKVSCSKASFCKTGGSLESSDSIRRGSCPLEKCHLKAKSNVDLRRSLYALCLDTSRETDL
T5 sequence (P15385 whole entry): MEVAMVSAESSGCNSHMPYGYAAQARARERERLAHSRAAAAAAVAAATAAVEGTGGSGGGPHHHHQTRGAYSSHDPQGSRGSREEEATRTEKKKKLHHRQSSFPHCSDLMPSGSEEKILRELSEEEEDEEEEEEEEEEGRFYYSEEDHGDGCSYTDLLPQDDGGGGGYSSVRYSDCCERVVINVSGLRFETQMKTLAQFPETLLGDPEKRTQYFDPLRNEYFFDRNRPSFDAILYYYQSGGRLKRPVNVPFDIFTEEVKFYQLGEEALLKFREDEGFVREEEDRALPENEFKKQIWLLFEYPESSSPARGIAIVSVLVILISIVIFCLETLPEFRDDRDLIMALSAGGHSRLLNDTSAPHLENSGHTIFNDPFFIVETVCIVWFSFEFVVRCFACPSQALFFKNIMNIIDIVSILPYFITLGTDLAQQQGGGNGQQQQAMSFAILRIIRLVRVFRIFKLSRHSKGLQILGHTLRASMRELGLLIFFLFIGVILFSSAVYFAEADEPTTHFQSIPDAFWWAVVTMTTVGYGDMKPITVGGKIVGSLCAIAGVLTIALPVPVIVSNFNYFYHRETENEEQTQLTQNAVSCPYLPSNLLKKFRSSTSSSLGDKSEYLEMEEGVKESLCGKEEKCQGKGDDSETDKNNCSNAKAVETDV

CC[C@H](C)[C@H](NC(=O)CNC(=O)[C@@H](N)C(C)C)C(=O)N[C@@H](CC(N)=O)C(=O)N[C@H](C(=O)N[C@@H](CCCCN)C(=O)N[C@H]1CSSC[C@@H]2NC(=O)[C@H](CCCCN)NC(=O)CNC(=O)[C@H](Cc3ccccc3)NC(=O)[C@H](CCCNC(=N)N)NC(=O)[C@H](CCSC)NC(=O)CNC(=O)[C@H](C)NC(=O)[C@H](CC(=O)O)NC(=O)[C@H](CCCCN)NC(=O)[C@@H]3CSSC[C@@H](C(=O)N[C@H](C(=O)N4CCC[C@H]4C(=O)N[C@@H](CCCCN)C(=O)O)[C@@H](C)O)NC(=O)[C@H](CC(=O)O)NC(=O)[C@H](CSSC[C@H](NC(=O)[C@H](CCC(N)=O)NC(=O)CNC(=O)[C@H](CO)NC(=O)[C@H](Cc4c[nH]cn4)NC(=O)[C@H](CCCCN)NC1=O)C(=O)N[C@@H](CC(C)C)C(=O)N[C@@H](CCCCN)C(=O)N1CCC[C@H]1C(=O)N3)NC(=O)[C@H](CCCCN)NC(=O)CNC(=O)[C@H](CC(N)=O)NC(=O)[C@H]([C@@H](C)CC)NC2=O)C(C)C [Recombinant MeKTx13-3] (H-VGINVKCKHSGQCLKPCKDAGMRFGKCINGKCDCTPK-OH; disulfide 7-27, 13-32, 17-34)
inhibition at 0.01 µM (KV1.3 [1]): ~50% | IC50 (KV1.1; mean ± SEM, n ≥ 3): 6.7 ± 2.7 nM

MeKTx13-3, natural toxin from Mesobuthus eupeus venom (peptide)
IC50 of inhibition of potassium current, two-electrode voltage clamp, X. laevis oocytes (rat KV1.6 (rat) [2]): 63.4 nM | IC50 of inhibition of potassium current, two-electrode voltage clamp, X. laevis oocytes (rat KV1.2 (rat) [3]): 106 nM | IC50 of inhibition of potassium current, two-electrode voltage clamp, X. laevis oocytes (rat KV1.1 (rat) [4]): 1.9 nM | IC50 of inhibition of potassium current, two-electrode voltage clamp, X. laevis oocytes (KV1.3 [5]): 8.9 nM | percent of potassium current blocked at 10 nM toxin, two-electrode voltage clamp, X. laevis oocytes (rat KV1.1 (rat) [6]): > 95%

Recombinant MeKTx13-3 (peptide)
IC50 of inhibition of potassium current, two-electrode voltage clamp, X. laevis oocytes (rat KV1.1 (rat) [7]): 6.7 nM | percent of potassium current blocked at 10 nM toxin, two-electrode voltage clamp, X. laevis oocytes (rat KV1.6 (rat) [8]): 15% | percent of potassium current blocked at 10 nM toxin, two-electrode voltage clamp, X. laevis oocytes (rat KV1.2 (rat) [9]): 25% | percent of potassium current blocked at 10 nM toxin, two-electrode voltage clamp, X. laevis oocytes (rat KV1.1 (rat) [6]): > 95% | percent of potassium current blocked at 10 nM toxin, two-electrode voltage clamp, X. laevis oocytes (KV1.3 [10]): 50%

CC[C@H](C)[C@H](NC(=O)CNC(=O)[C@@H](N)C(C)C)C(=O)N[C@@H](CC(N)=O)C(=O)N[C@H](C(=O)N[C@@H](CCCCN)C(=O)N[C@H]1CSSC[C@@H]2NC(=O)[C@H](CCCCN)NC(=O)CNC(=O)[C@H](Cc3ccccc3)NC(=O)[C@H](CCCNC(=N)N)NC(=O)[C@H](CCSC)NC(=O)CNC(=O)[C@H](C)NC(=O)[C@H](CC(=O)O)NC(=O)[C@H](CCCCN)NC(=O)[C@@H]3CSSC[C@@H](C(=O)N[C@H](C(=O)N4CCC[C@H]4C(=O)N[C@@H](CCCCN)C(N)=O)[C@@H](C)O)NC(=O)[C@H](CC(=O)O)NC(=O)[C@H](CSSC[C@H](NC(=O)[C@H](CCC(N)=O)NC(=O)CNC(=O)[C@H](CO)NC(=O)[C@H](Cc4c[nH]cn4)NC(=O)[C@H](CCCCN)NC1=O)C(=O)N[C@@H](CC(C)C)C(=O)N[C@@H](CCCCN)C(=O)N1CCC[C@H]1C(=O)N3)NC(=O)[C@H](CCCCN)NC(=O)CNC(=O)[C@H](CC(N)=O)NC(=O)[C@H]([C@@H](C)CC)NC2=O)C(C)C [MeKTx13-3] (H-VGINVKCKHSGQCLKPCKDAGMRFGKCINGKCDCTPK-NH2; disulfide 7-27, 13-32, 17-34; N-terminus and C-terminus assumed)
Hill coefficient (KV1.6; KV1.6 concentration–response): 1.0 ± 0.1 | inhibition at 0.01 µM (KV1.3 [1]): ~50% | Hill coefficient (KV1.3 [1]; KV1.3 concentration–response, mean ± SEM, n ≥ 3): 0.8 ± 0.2 | Hill coefficient (KV1.1; KV1.1 concentration–response, mean ± SEM, n ≥ 3): 0.9 ± 0.1 | Hill coefficient (KV1.2; KV1.2 concentration–response, mean ± SEM, n ≥ 3): 1.3 ± 0.3

CC[C@H](C)[C@H](NC(=O)CNC(=O)[C@@H](N)C(C)C)C(=O)N[C@@H](CC(N)=O)C(=O)N[C@H](C(=O)N[C@@H](CCCCN)C(=O)N[C@H]1CSSC[C@@H]2NC(=O)[C@H](CCCCN)NC(=O)CNC(=O)[C@H](Cc3ccccc3)NC(=O)[C@H](CCCNC(=N)N)NC(=O)[C@H](CCSC)NC(=O)CNC(=O)[C@H](C)NC(=O)[C@H](CC(=O)O)NC(=O)[C@H](C)NC(=O)[C@@H]3CSSC[C@@H](C(=O)N[C@H](C(=O)N4CCC[C@H]4C(=O)N[C@@H](CCCCN)C(=O)O)[C@@H](C)O)NC(=O)[C@H](CCCNC(=N)N)NC(=O)[C@H](CSSC[C@H](NC(=O)[C@H](C)NC(=O)CNC(=O)[C@H](CO)NC(=O)[C@H](Cc4c[nH]cn4)NC(=O)[C@H](CCCCN)NC1=O)C(=O)N[C@@H](CC(C)C)C(=O)N[C@@H](C)C(=O)N1CCC[C@H]1C(=O)N3)NC(=O)[C@H](CCCCN)NC(=O)CNC(=O)[C@H](CC(N)=O)NC(=O)[C@H]([C@@H](C)CC)NC2=O)C(C)C [MeKTx13-3_AAAR] (H-VGINVKCKHSGACLAPCADAGMRFGKCINGKCRCTPK-OH; disulfide 7-27, 13-32, 17-34)
IC50 (KV1.4): > 1000 nM | IC50 (KV1.6; rKV1.6, Xenopus oocytes, two-electrode voltage clamp, ND96 pH 7.4, 18–22°C, 0 mV from −90 mV): 1520 ± 183 nM | inhibition at 0.01 µM (KV1.3 [1]): ~50% | IC50 (KV1.3 [1]; hKV1.3, Xenopus oocytes, two-electrode voltage clamp, ND96 pH 7.4, 18–22°C, 0 mV from −90 mV, mean ± SEM, n ≥ 3): 9.1 ± 0.4 nM | KV1.1/KV1.3 selectivity factor (KV1.3 [1]; ratio of IC50 values KV1.1/KV1.3): 60 | inhibition at 0.01 µM (KV1.1; 10 nM, KV1.1, Xenopus oocytes, read-out: inhibition of potassium current): ~15% | IC50 (KV1.1; mean ± SEM, n ≥ 3): 541 ± 48.6 nM | IC50 (KV1.5): > 1000 nM | inhibition at 0.01 µM (KV1.2; 10 nM, KV1.2, Xenopus oocytes, read-out: inhibition of potassium current): ~5% | IC50 (KV1.2; rKV1.2, Xenopus oocytes, two-electrode voltage clamp, ND96 pH 7.4, 18–22°C, 0 mV from −90 mV, mean ± SEM, n ≥ 3): 208 ± 15.2 nM
